≈ marks a conversion by molar mass, not a printed value.
Key:
[1] = tested on: Bacillus subtilis (ATCC43639); test: Microtitre plate assay, IC90 determination; assay type: cell-based; conditions: 90% inhibitory concentration for bacterial growth; for IC90: read-out: IC90 BSU 43639
Description: (§1) The bacteria used in this study were grown overnight in flasks containing 100 ml Mueller-Hinton Broth (Becton Dickinson—cat. no. 275730) in sterile de-ionized water, with shaking, at 37° C. Stocks (0.5 ml/tube) were stored at −70° C. until use. Bacteria titrations were performed in microtiter plates and colony forming units (CFUs) were determined. In general, an inoculum level of approximately 100 CFUs was used for susceptibility testing.
(§2) Anti Bacterial Susceptibility Testing: IC90 Determination
(§3) Flat-bottom, sterile 96-well plastic microtiter plates were filled with 180 μl of sterile deionized water, supplemented with 0.25% BSA. Subsequently, stock solutions (7.8× final test concentration) of compounds were added in 45 μl volumes in column 2. Serial five-fold dilutions (45 μl in 180 μl) were made directly in the microtiter plates from column 2 to reach column 11. Untreated control samples with (column 1) and without (column 12) inoculum were included in each microtiter plate. Depending on the bacteria type, approximately 10 to 60 CFU per well of bacteria inoculum (100 TCID50), in a volume of 100 μl in 2.8× Mueller-Hinton broth medium, was added to the rows A to H, except column 12. The same volume of broth medium without inoculum was added to column 12 in row A to H. The cultures were incubated at 37° C. for 24 hours under a normal atmosphere (incubator with open air valve and continuous ventilation). At the end of incubation, one day after inoculation, the bacterial growth was quantitated fluorometrically. Therefore resazurin (0.6 mg/ml) was added in a volume of 20 μl to all wells 3 hours after inoculation, and the plates were re-incubated overnight. A change in colour from blue to pink indicated the growth of bacteria. The fluorescence was read in a computer-controlled fluorometer (Cytofluor Biosearch) at an excitation wavelength of 530 nm and an emission wavelength of 590 nm. The % growth inhibition achieved by the compounds was calculated according to standard methods. The IC90 (expressed in μg/ml) was defined as the 90% inhibitory concentration for bacterial growth.

[2] = tested on: Enterococcus faecalis (ATCC14506); test: Microtitre plate assay, IC90 determination; assay type: cell-based; conditions: 90% inhibitory concentration for bacterial growth; for IC90: read-out: IC90 EFA 14506
Description: as §1, §2, §3

[3] = tested on: Enterococcus faecalis (ATCC29212); test: Microtitre plate assay, IC90 determination; assay type: cell-based; conditions: 90% inhibitory concentration for bacterial growth; for IC90: read-out: IC90 EFA 29212
Description: as §1, §2, §3

[4] = tested on: Listeria monocytogenes (ATCC49594); test: Microtitre plate assay, IC90 determination; assay type: cell-based; conditions: 90% inhibitory concentration for bacterial growth; for IC90: read-out: IC90 LMO 49594
Description: as §1, §2, §3

[5] = tested on: Pseudomonas aeruginosa (ATCC27853); test: Microtitre plate assay, IC90 determination; assay type: cell-based; conditions: 90% inhibitory concentration for bacterial growth; for IC90: read-out: IC90 PAE 27853
Description: as §1, §2, §3

[6] = tested on: Staphylococcus aureus (ATCC25923); test: Microtitre plate assay, IC90 determination; assay type: cell-based; conditions: for IC90 STA 25923: 90% inhibitory concentration for bacterial growth; for IC90: Staphylococcus aureus, ATCC25923, 90% inhibitory concentration for bacterial growth, read-out: IC90 STA 25923
Description: as §1, §2, §3

[7] = tested on: Staphylococcus aureus (ATCC29213); test: Microtitre plate assay, IC90 determination; assay type: cell-based; conditions: 90% inhibitory concentration for bacterial growth, 37° C., resazurin fluorescence; for IC90: Staphylococcus aureus, ATCC29213, 24 h, read-out: IC90 STA 29213; for IC90 STA 29213: 24 hours
Description: as §1, §2, §3

[8] = tested on: Streptococcus pneumoniae (ATCC6305); test: Microtitre plate assay, IC90 determination; assay type: cell-based; conditions: 90% inhibitory concentration for bacterial growth; for IC90: read-out: IC90 SPN 6305
Description: as §1, §2, §3

[9] = tested on: Streptococcus pyogens (ATCC8668); test: Microtitre plate assay, IC90 determination; assay type: cell-based; conditions: for IC90: Streptococcus, ATCC8668, 90% inhibitory concentration for bacterial growth, read-out: IC90 SPY 8668; for IC90 SPY 8668: 90% inhibitory concentration for bacterial growth
Description: as §1, §2, §3

[10] = tested on: methicilline resistant Staphylococcus aureus (MRSA) (a clinical isolate from the University of Antwerp); test: Microtitre plate assay, IC90 determination; assay type: cell-based; conditions: 90% inhibitory concentration for bacterial growth; for IC90: Staphylococcus aureus, MRSA, read-out: IC90 STA RMETHIC
Description: as §1, §2, §3

[11] = tested on: Streptococcus mutans (ATCC33402); test: Microtitre plate assay, IC90 determination; assay type: cell-based; conditions: 90% inhibitory concentration for bacterial growth, read-out: IC90 SMU 33402
Description: as §1, §2, §3

Structure (SMILES)	IC90 [1]	IC90 [3]	IC90 [4]	IC90 [5]	IC90 [7]	IC90 [8]	IC90 [9]	IC90 [6]	IC90 [10]	melting point	further results
CCc1cc2cc(C(c3ccccc3)C(O)(CCN(C)C)c3cccc4ccccc34)ccc2nc1Cl (single isomer, unassigned) [Compound 6]	12.8 µg/mL (≈ 25.1 µM)	12.8 µg/mL (≈ 25.1 µM)	12.8 µg/mL (≈ 25.1 µM)	12.8 µg/mL (≈ 25.1 µM)	12.8 µg/mL (≈ 25.1 µM)	12.8 µg/mL (≈ 25.1 µM)	12.8 µg/mL (≈ 25.1 µM)	–	–	–	IC90 [2]: 11.4 µg/mL (≈ 22.4 µM); IC90 STA 25923 [6]: 12.8 µg/mL (≈ 25.1 µM); IC90 STA RMETHIC [10]: 50.9 µg/mL (≈ 100 µM)
CCc1cc2cc(C(c3ccccc3)C(O)(CCN(C)C)c3cccc4ccccc34)ccc2nc1Cl (single isomer, unassigned) [Compound 5]	–	–	–	–	–	–	–	–	–	–	IC90 BSU 43639 [1]: 12.8 µg/mL (≈ 25.1 µM); IC90 EFA 14506 [2]: 11.4 µg/mL (≈ 22.4 µM); IC90 EFA 29212 [3]: 12.8 µg/mL (≈ 25.1 µM); IC90 LMO 49594 [4]: 12.8 µg/mL (≈ 25.1 µM); IC90 PAE 27853 [5]: 12.8 µg/mL (≈ 25.1 µM); IC90 STA 25923 [6]: 5.1 µg/mL (≈ 10 µM); IC90 STA 29213 [7]: 12.8 µg/mL (≈ 25.1 µM); IC90 SPN 6305 [8]: 12.8 µg/mL (≈ 25.1 µM); IC90 SPY 8668 [9]: 12.8 µg/mL (≈ 25.1 µM); IC90 STA RMETHIC [10]: 12.8 µg/mL (≈ 25.1 µM)
CCc1cc2cc(C(c3ccccc3)C(O)(CCN(C)C)c3cc(F)cc(F)c3)ccc2nc1Cl (single isomer, unassigned) [Compound 11]	39.3 µg/mL (≈ 79.4 µM)	12.4 µg/mL (≈ 25 µM)	7.9 µg/mL (≈ 16 µM)	12.4 µg/mL (≈ 25 µM)	12.4 µg/mL (≈ 25 µM)	12.4 µg/mL (≈ 25 µM)	12.4 µg/mL (≈ 25 µM)	49.5 µg/mL (≈ 100 µM)	49.5 µg/mL (≈ 100 µM)	–	–
CN(C)CC(c1cccc(F)c1)C(O)C(Cc1ccccc1)c1ccc2cc(Br)ccc2n1 (single isomer, unassigned) [Compound 4]	–	–	–	–	–	–	–	–	–	179 °C	–
CN(C)CC(c1cccc2ccccc12)C(O)C(Cc1ccccc1)c1ccc2cc(Br)ccc2n1 (single isomer, unassigned) [Compound 2]	13.6 µg/mL (≈ 25.2 µM)	10.8 µg/mL (≈ 20 µM)	10.8 µg/mL (≈ 20 µM)	10.8 µg/mL (≈ 20 µM)	12.1 µg/mL (≈ 22.4 µM)	13.6 µg/mL (≈ 25.2 µM)	10.8 µg/mL (≈ 20 µM)	13.6 µg/mL (≈ 25.2 µM)	13.6 µg/mL (≈ 25.2 µM)	143 °C	IC90 [2]: 12.1 µg/mL (≈ 22.4 µM); IC90 [11]: 10.8 µg/mL (≈ 20 µM)
CCc1cc2ccc(C(c3ccccc3)C(O)(CCN(C)C)c3cc(F)cc(F)c3)cc2nc1Cl (single isomer, unassigned) [Compound 10]	12.4 µg/mL (≈ 25 µM)	12.4 µg/mL (≈ 25 µM)	12.4 µg/mL (≈ 25 µM)	9.9 µg/mL (≈ 20 µM)	12.4 µg/mL (≈ 25 µM)	12.4 µg/mL (≈ 25 µM)	12.4 µg/mL (≈ 25 µM)	12.4 µg/mL (≈ 25 µM)	12.4 µg/mL (≈ 25 µM)	–	–
CCc1cc2cc(C(c3ccccc3)C(O)(CCCCN(C)C)c3ccccc3)ccc2nc1OC (single isomer, unassigned) [Compound 12]	–	–	–	–	1.53 µg/mL (≈ 3.17 µM)	1.53 µg/mL (≈ 3.17 µM)	–	–	–	–	–
CN(C)CC(c1cccc(F)c1)C(O)C(Cc1ccccc1)c1ccc2cc(Br)ccc2n1 (single isomer, unassigned) [Compound 1]	–	12.8 µg/mL (≈ 25.2 µM)	10.1 µg/mL (≈ 19.9 µM)	12.8 µg/mL (≈ 25.2 µM)	12.8 µg/mL (≈ 25.2 µM)	12.8 µg/mL (≈ 25.2 µM)	10.1 µg/mL (≈ 19.9 µM)	12.8 µg/mL (≈ 25.2 µM)	12.8 µg/mL (≈ 25.2 µM)	136 °C	IC90 [11]: 10.1 µg/mL (≈ 19.9 µM)
CCc1cc2ccc(C(c3ccccc3)C(O)(CCN(C)C)c3cc(F)cc(F)c3)cc2nc1Cl (single isomer, unassigned) [Compound 9]	–	–	–	–	–	–	–	–	–	–	IC90 BSU 43639 [1]: 12.4 µg/mL (≈ 25 µM); IC90 [2]: 11.1 µg/mL (≈ 22.4 µM); IC90 EFA 29212 [3]: 12.4 µg/mL (≈ 25 µM); IC90 LMO 49594 [4]: 12.4 µg/mL (≈ 25 µM); IC90 PAE 27853 [5]: 9.9 µg/mL (≈ 20 µM); IC90 STA 25923 [6]: 12.4 µg/mL (≈ 25 µM); IC90 STA 29213 [7]: 11.1 µg/mL (≈ 22.4 µM); IC90 [11]: 9.9 µg/mL (≈ 20 µM); IC90 SPN 6305 [8]: 12.4 µg/mL (≈ 25 µM); IC90 SPY 8668 [9]: 9.9 µg/mL (≈ 20 µM); IC90 STA RMETHIC [10]: 12.4 µg/mL (≈ 25 µM)
COc1nc2ccc(C(c3ccccc3)C(O)(CCCCN(C)C)c3ccccc3)cc2cc1C (single isomer, unassigned) [Compound 13]	–	–	–	–	7.43 µg/mL (≈ 15.9 µM)	7.43 µg/mL (≈ 15.9 µM)	–	–	–	–	–
CN(C)CC(c1cccc2ccccc12)C(O)C(Cc1ccccc1)c1ccc2cc(Br)ccc2n1 (single isomer, unassigned) [Compound 3]	–	–	–	–	–	–	–	–	–	69 °C	–

Reference: patent US8802671B2, “Quinoline derivatives as antibacterial agents” (Janssen Pharmaceutica NV, priority 2005, dated 2014)
